Measured values from US20250002450A1, “CATIONIC STEROID COMPOUNDS, METHOD OF OBTAINING THEREOF, FORMULATIONS COMPRISING THEREOF AND THEIR USES” (UNIVERSIDADE DO PORTO, priority 2021, published 2025).

Legend:
E. coli ATCC 25922 = assay: Membrane integrity, propidium iodide influx assay (SYTO 9/PI); format: cell-based, Escherichia coli
Protocol: The influx of PI in E. coli ATCC 25922 treated with 2×MIC, MIC, and ½×MIC of compound 1 was evaluated using a commercial kit that includes fluorescent nucleic acid stains SYTO® 9 and PI. SYTO® 9 can enter cells with intact or damaged membranes, generally labeling both, whereas PI only penetrates cells with severe membrane lesions, causing a reduction in SYTO® 9 fluorescence when both dyes are present.
In these assays, COL and AMP were used as controls. COL is a polycationic antimicrobial peptide with a complex mode of action, that ultimately solubilizes the bacterial cell membrane. AMP is an aminopenicillin that inhibits cell wall synthesis by inhibiting penicillin-binding proteins. E. coli ATCC 25922 cells were treated with compound 1 and, at several time-points (0, 1, and 18 h), samples were taken, and SYTO® 9/PI ratio was determined ([FIG. 4]). The entrance of PI is reflected in a reduction of this ratio.
Briefly, E. coli ATCC 25922 colonies from overnight cultures in MHA were suspended in CAMHB to prepare an inoculum with a final concentration of approximately 5×10^5 CFU/mL. The tubes were incubated overnight at 36° C. in a water bath with shaking. Following this, the cell suspensions were centrifuged at 3500 rpm for 15 min, the supernatant was removed, the cells were carefully resuspended in fresh CAMHB and the suspension was adjusted to 0.5 McFarland. An aliquot of this suspension was then added to each tube of CAMHB alone (control) or CAMHB plus an appropriate amount of test compound. […] The tubes were incubated at 36 degrees C. in a water bath with shaking and, at pre-established time points (0, 1, and 18 h), […] aliquots were retrieved for further analysis. After the exposure time, cells were washed two times, resuspended in 0.85% NaCl, and 100 μL of each cell suspension was distributed in the wells of a microtiter plate, in triplicate. 100 μL of a mixture of 30 μM PI and 5 μM SYTO® 9 prepared in ultrapure water were added to each well, and the plates were incubated at room temperature, in the dark, for 15 min. The fluorescence intensity of the stained bacterial suspensions was determined using a microplate reader (Synergy HT, BioTek Instruments, Winooski, VT, USA) by two consecutive measurements with excitation wavelength 485 nm and emission wavelength 528 nm (SYTO® 9) or 590 nm (PI). Data were analyzed by subtracting background fluorescence from each sample, dividing the fluorescence intensity of SYTO® 9 by fluorescence intensity of PI, and the results are presented as a percentage of control. Three independent assays were performed in triplicate for each experimental condition.

[1] = test system: marine biofilm-forming bacterial strains; settings: cited from earlier work
C. jejuni P5/4 = assay: Kirby-Bauer disk diffusion; format: cell-based, Campylobacter jejuni; settings: 15 μg per disk
Protocol: An initial screening of the antibacterial activity of the compounds was performed by the Kirby-Bauer disk diffusion method, as recommended by the Clinical and Laboratory Standards Institute (CLSI). Briefly, sterile 6 mm blank paper disks (Oxoid, Basingstoke, England) impregnated with 15 μg of each compound were placed on inoculated MH agar plates. A blank disk with dimethylsulfoxide (DMSO) was used as a negative control. MH inoculated plates were incubated for 18-20 h at 37 degrees C. At the end of incubation, the inhibition halos where measured. The MIC was used to determine the antibacterial activity of each compound, in accordance with the recommendations of the CLSI. Two-fold serial dilutions of the compounds were prepared in Mueller-Hinton Broth 2 (MHB2—Sigma-Aldrich, St. Louis, MO, USA) within the concentration range of 0.062-64 μg/mL. CTX ranging between 0.031-16 μg/mL was used as a control. Sterility and growth controls were included in each assay. Purity checks and colony counts of the inoculum suspensions were also performed in order to ensure that the final inoculum density closely approximates the intended number (5×10^5 CFU/mL). The MIC was determined as the lowest concentration of compound that inhibited growth of the bacteria. The MBC was assessed by spreading 10 μL of culture collected from wells showing no visible growth on MH agar plates. […]

S. aureus 66/1 = assay: Checkerboard synergy with OXA; format: cell-based, Staphylococcus aureus
Protocol: The combined effect of compound 1 and CTX for E. coli SA/2, VAN for E. faecalis B3/101, COL for E. coli 2252, erythromycin for E. coli ATCC 25922, and OXA for S. aureus 66/1 was evaluated by the checkerboard method. […] The interaction between compound 1 and erythromycin was assessed for E. coli ATCC 25922. Gram-negative bacteria are intrinsically resistant to erythromycin, a macrolide that inhibits protein synthesis, and cannot penetrate the outer membrane of Gram-negative bacteria, which is impermeable to hydrophobic antibiotics. Ascertain ceragenins have been previously described to be able to enhance the efficacy of such antibiotics, this possibility was investigated for compound 1 and a FICI of 0.6 was obtained.

C. albicans ATCC 10231 = assay: Germ tube formation; format: cell-based, Candida albicans; settings: 3 h
Protocol: The effect of compound 1 in germ tube formation of C. albicans ATCC 10231 was determined as previously described. Briefly, cell suspensions were prepared in NYP medium (N-acetylglucosamine [Sigma, St. Louis, MO, USA; 10-3 mol/L], yeast nitrogen base [Difco, New Jersey, USA; 3.35 g/L], proline [Fluka, Buchs, St. Gallen, Switzerland; 10^−3 mol/L], and NaCl [4.5 g/L], pH 6.7±0.1) and adjusted to a density of (1.0±0.2)×10^6 CFU/mL, as determined by cell counts using a haemocytometer. An appropriate volume of compound stock solution at 10 mg/mL was added to obtain final concentrations ranging between 64 and 8 μg/mL. Filamentation controls were included in each assay with and without 0.64% DMSO. Following a 3 h incubation at 37° C., 100 cells from each sample were counted, using a haemocytometer, and the percentage of germ tubes was determined. Three independent assays were performed.

Question: Which “reduction in SYTO 9/PI ratio vs untreated control” value (E. coli ATCC 25922; 32 μg/mL (MIC), after 1 and 18 h) does the source give for `C[C@H](CCC(=O)NCCN)[C@H]1CC[C@H]2[C@@H]3CC[C@@H]4C[C@H](O)CC[C@]4(C)[C@H]3C[C@H](O)[C@]12C` [Compound 1, (R)—N-(2-aminoethyl)-4-((3R,5R,8R,9S,10S,12S,13R,14S,17R)-3,12-dihydroxy-10,13-dimethylhexadecahydro-1H-cyclopenta[a]phenanthren-17-yl) pentanamida] here?
Answer: significant

Question: What about the “reduction in SYTO 9/PI ratio vs untreated control” value (E. coli ATCC 25922; 64 μg/mL (2×MIC, MBC), 0, 1, 18 h) of the same compound?
Answer: significant at all time points

Question: What about the “activity against growth of marine biofilm-forming bacterial strains (in words)” value [1] of the same compound?
Answer: active

Question: And the Disk diffusion (C. jejuni P5/4)?
Answer: 8 mm

Question: What about the “combined effect with OXA (in words)” value (S. aureus 66/1) of the same compound?
Answer: No synergistic interactions

Question: And the “dimorphic transition / germ tube formation (in words)” value (C. albicans ATCC 10231; 64 μg/mL (MIC))?
Answer: complete inhibition of dimorphic transition

Question: And the “dimorphic transition / germ tube formation (in words)” value (C. albicans ATCC 10231; 32 and 16 μg/mL (½×MIC and ¼×MIC))?
Answer: significant inhibition
